Measured values: patent US10717746B2, “Chemical compounds” (ASTRAZENECA AB, priority 2015, dated 2020)

What was measured:
MV411 cells = test: MV411 caspase activity assay (Caspase-Glo 3/7); type: cell-based; details: Homo sapiens, MV4-11, 6 h, 6-hr treatment, caspase 3/7 induction
Description: MV411 Caspase Activity Assay
This is a cell assay to measure the induction of caspase activity in the acute myeloid leukemia cell line, MV411 after 6-hr treatment with CDK9 inhibitors. On the first day, 3000 MV411 cells/well were seeded in 50 μl of growth media (IMDM+10% FBS+2% L-Glu+P/S) in 384-well white plates, incubate plates in 37° C. incubator overnight. […] After 6 hour incubation in 37° C. incubator, 25 μl of Caspase-Glo 3/7 reagent (Promega) per well was added into each well, and plates were incubated at room temperature for 30 min in dark. The plates were read on an Infinite M200 microplate reader (Tecan) with a 100 ms integration time.

CDK9/CycT1 [1] = molecular target: T1, CDK9/CycT1 (Homo sapiens (Human), UniProt P50750); test: CDK9 kinase assay, high ATP concentration (5 mM ATP); type: biochemical; details: 1.5 nM CDK9, read-out: CDK9 High ATP conc. (IC50)
Description: (§1) Activity of CDK9 was determined in-vitro using a mobility shift assay on a Caliper LC3000 reader (Caliper/PerkinElmer), which measures fluorescence of a phosphorylated and unphosphorylated fluorescent peptide substrate and calculates a ratiometric value to determine percent turnover. Phosphorylation of the peptide in the presence and absence of the compound of interest was determined. Enzyme/substrate/adenosine triphosphate (ATP) mix (3 nM CDK9/CycT1, 6 μM ATP, 1.5 μM CDK9 peptide substrate (FITC-X-GSRTPMY-NH2 (X: epsilon aminocaproic acid)), 50 mM HEPES (pH7.2), 1 mM dithiothreitol, 0.01% tween 20, 50 μg/mL bovine serum albumin, (final assay concentration)) (5 μl) was preincubated with 2 μl of compound for 15 minutes at 25° C. Reactions were initiated with 5 μl of 24 mM MgCl2 (10 mM final assay concentration) in buffer (50 mM HEPES (pH7.2), 1 mM dithiothreitol, 0.01% tween 20, 50 μg/mL bovine serum albumin, (final assay concentration) and incubated at 25° C. for 90 minutes and reactions were stopped by addition of 5 μl of Stop mix consisting of 65 mM HEPES (pH7.2), 35.5 mM EDTA, 0.227% Coatin Reagent 3 (Caliper/PerkinElmer), and 0.003% Tween. Phosphorylated and unphosphorylated substrate was detected by a Caliper LC3000 reader (Caliper/PerkinElmer) in the presence of separation buffer consisting of 100 mM HEPES (pH7.2), 15.8 mM EDTA, 0.1% Coatin Reagent 3 (Caliper/PerkinElmer), 0.015% Brij-35, 5% DMSO, and 5.6 mM MgCl2. CDK9 enzyme was acquired from Carna Biosciences (Catalogue number 04-110), the CDK9 peptide substrate was acquired from Intonation (Boston, Mass.; Custom-made).
High ATP assays were run the same way with the following modifications: the final assay concentration of CDK9 was 1.5 nM and the final assay concentration of ATP was 5 mM.

CDK9/CycT1 [2] = molecular target: T1, CDK9/CycT1; test: CDK9 kinase assay, ATP concentration at Km (mobility shift, Caliper LC3000); type: biochemical; details: 6 μM ATP, 3 nM CDK9/CycT1; read-out: CDK9 ATP conc. at Km (IC50)
Description: as §1

[3] = test system: phosphorylation of RNA Polymerase II (RNAPII) at the Ser2 site in MCF7 cells; test: MCF7 pSer2 RNAPII MOA assay (immunofluorescence); type: cell-based; details: Homo sapiens, MCF7, 6 h, 6-hr treatment, read-out: p-Ser 2 RNAPII (IC50)
Description: MCF7 pSer2 RNAPII MOA Assay
This is an immunofluorescence assay to determine the effect of CDK9 inhibitors on phosphorylation of RNA Polymerase II (RNAPII) at the Ser2 site in the breast cancer cell line, MCF7. On day one, 2500 MCF7 cells/well were seeded in 30 μl of growth media (RPMI+10% FBS+1% L-Glu+P/S) in 384-well black-wall clear-bottom plates, incubate plates overnight at 37° C. incubator. On the second day, the cells were treated with CDK9 inhibitors (7 point dose response ranging from 3 μM to 0.004 μM) using an ECHO liquid handler (Labcyte). After 6-hr treatment at 37° C. incubator, the cells were fixed with 30 µl/well 7.4% paraformaldehyde for 15 min at room temperature; the cells were washed twice with PBS, then permeabilized with 0.3% Triton X/PBS for 5 min at room temperature. After washing cells with PBS, the cells were incubated with 1:2000 diluted Anti-Ser2 Phospho-RNA pol II antibody (Covance MMS-129R) in 3% FBS/0.1% PBST overnight at 4° C. On the next day, the cells were washed twice with 0.1% PBST, then incubated with 1:1000 diluted Alexa Fluor 488 Goat-anti-mouse antibody (Life Technologies A-11001) and 1:4000 diluted DAPI at room temperature in dark. After one hour incubation, the cells were washed twice with 0.1% PBST, and once with PBS. The plates where sealed and read on an Acumen eX3 microplate cytometer (TTP Labtech) to assess phosphorylation level in each well.

T1 sequence (P50750 whole entry): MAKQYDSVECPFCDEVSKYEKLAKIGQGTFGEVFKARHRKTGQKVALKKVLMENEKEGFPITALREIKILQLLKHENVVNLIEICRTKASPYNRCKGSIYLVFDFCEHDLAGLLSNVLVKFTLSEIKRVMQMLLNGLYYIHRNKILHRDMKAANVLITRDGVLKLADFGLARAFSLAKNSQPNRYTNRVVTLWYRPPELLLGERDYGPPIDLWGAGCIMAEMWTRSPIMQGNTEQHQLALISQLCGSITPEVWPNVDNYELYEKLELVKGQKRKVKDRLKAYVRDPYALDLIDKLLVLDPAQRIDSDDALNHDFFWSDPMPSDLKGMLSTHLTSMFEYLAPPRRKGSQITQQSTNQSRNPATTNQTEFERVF
T1 sequence (O60563 whole entry partner): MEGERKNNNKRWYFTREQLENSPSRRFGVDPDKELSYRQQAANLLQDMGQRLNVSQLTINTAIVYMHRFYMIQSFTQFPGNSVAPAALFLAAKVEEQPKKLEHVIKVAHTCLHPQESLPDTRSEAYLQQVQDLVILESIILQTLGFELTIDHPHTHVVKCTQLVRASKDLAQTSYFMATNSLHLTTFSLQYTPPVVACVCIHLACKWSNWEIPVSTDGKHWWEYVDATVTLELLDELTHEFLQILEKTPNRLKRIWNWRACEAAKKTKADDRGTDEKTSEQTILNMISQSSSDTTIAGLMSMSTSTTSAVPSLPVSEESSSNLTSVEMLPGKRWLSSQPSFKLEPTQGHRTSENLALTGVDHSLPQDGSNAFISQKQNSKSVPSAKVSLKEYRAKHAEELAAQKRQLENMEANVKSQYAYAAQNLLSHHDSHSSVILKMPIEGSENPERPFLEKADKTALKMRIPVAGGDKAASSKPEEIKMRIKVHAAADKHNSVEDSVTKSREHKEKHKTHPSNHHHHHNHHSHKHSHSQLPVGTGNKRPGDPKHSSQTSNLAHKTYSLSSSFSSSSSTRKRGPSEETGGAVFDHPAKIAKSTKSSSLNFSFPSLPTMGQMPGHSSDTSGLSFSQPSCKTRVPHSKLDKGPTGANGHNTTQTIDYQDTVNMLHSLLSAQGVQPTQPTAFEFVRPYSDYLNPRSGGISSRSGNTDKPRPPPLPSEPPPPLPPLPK

| IC50 (MV411 cells) | IC50 (CDK9/CycT1 [1]) | IC50 (CDK9/CycT1 [2]) | IC50 [3] | SMILES |
| --- | --- | --- | --- | --- |
| 0.043 µM | 0.007 µM | < 0.003 µM | 0.045 µM | CC(=O)N[C@@H]1CCC[C@H](C(=O)Nc2cc(-c3cnn4c3CC(C)CC4)c(Cl)cn2)C1 (single isomer, unassigned) [Example 64] |
| 0.256 µM | 0.12 µM | < 0.003 µM | 0.69 µM | CC(=O)N[C@@H]1CCC[C@H](C(=O)Nc2cc(-c3cnn4c3OCCC4)c(Cl)cn2)C1 [Example 8, (1S,3R)-3-acetamido-N-(5-chloro-4-(6,7-dihydro-5H-pyrazolo[5,1-b][1,3]oxazin-3-yl)pyridin-2-yl)cyclohexanecarboxamide] |
| 0.333 µM | 0.217 µM | 0.005 µM | 0.55 µM | CC(=O)N[C@@H]1CCC[C@H](C(=O)Nc2cc(-c3cnn4c3CCC4)c(Cl)cn2)C1 [Example 10, (1S,3R)-3-acetamido-N-(5-chloro-4-(5,6-dihydro-4H-pyrrolo[1,2-b]pyrazol-3-yl)pyridin-2-yl)cyclohexanecarboxamide] |
| 1.93 µM | 1.2 µM | 0.011 µM | 2.7 µM | CC(=O)N[C@@H]1CCC[C@H](C(=O)Nc2cc(-c3cnn4c3COCC4)c(Cl)cn2)C1 [Example 11, (1S,3R)-3-acetamido-N-(5-chloro-4-(6,7-dihydro-4H-pyrazolo[5,1-c][1,4]oxazin-3-yl)pyridin-2-yl)cyclohexanecarboxamide] |
| 0.914 µM | 0.24 µM | 0.006 µM | 0.82 µM | CC(=O)N[C@@H]1CCC[C@H](C(=O)Nc2cc(-c3cnn4c3CN(C)CC4)c(Cl)cn2)C1 [Example 13, (1S,3R)-3-acetamido-N-(5-chloro-4-(5-methyl-4,5,6,7-tetrahydropyrazolo[1,5-a]pyrazin-3-yl)pyridin-2-yl)cyclohexanecarboxamide] |
| 0.669 µM | 0.35 µM | 0.005 µM | 1.3 µM | CC(=O)N[C@@H]1CCC[C@H](C(=O)Nc2cc(-c3cnn4c3NCCC4)c(Cl)cn2)C1 [Example 15, (1S,3R)-3-acetamido-N-(5-chloro-4-(4,5,6,7-tetrahydropyrazolo[1,5-a]pyrimidin-3-yl)pyridin-2-yl)cyclohexanecarboxamide] |

Continued, compound first:

| SMILES | IC50 (MV411 cells) | IC50 (CDK9/CycT1 [1]) | IC50 (CDK9/CycT1 [2]) | IC50 [3] |
| --- | --- | --- | --- | --- |
| COC1CCn2ncc(-c3cc(NC(=O)[C@H]4CCC[C@@H](NC(C)=O)C4)ncc3Cl)c2C1 (single isomer, unassigned) [Example 72] | 0.4 µM | 0.111 µM | 0.003 µM | 0.36 µM |
| CC(=O)N[C@@H]1CCC[C@@H](C(=O)Nc2cc(-c3cnn4c3CC(C)(C)C4)c(F)cn2)C1 (single isomer, unassigned) [Example 83] | 0.073 µM | 0.025 µM | < 0.003 µM | 0.061 µM |
| O=C(Nc1cc(-c2cnc3n2CCCC3)c(Cl)cn1)[C@@H]1CCCNC1 [Example 1, (R)—N-(5-chloro-4-(5,6,7,8-tetrahydroimidazo[1,2-a]pyridin-3-yl)pyridin-2-yl)piperidine-3-carboxamide] | 1.78 µM | 4.5 µM | 0.0491 µM | 1.54 µM |
| CC(=O)N[C@@H]1CCC[C@H](C(=O)Nc2cc(-c3cnn4c3CCCC4)ccn2)C1 [Example 3, (1S,3R)-3-acetamido-N-(4-(4,5,6,7-tetrahydropyrazolo[1,5-a]pyridin-3-yl)pyridin-2-yl)cyclohexanecarboxamide] | 0.44 µM | 0.21 µM | < 0.003 µM | 0.52 µM |
| O=C(Nc1cc(-c2cnn3c2CCCC3)c(Cl)cn1)[C@H]1C[C@@H](O)C1 [Example 4, Cis-N-(5-chloro-4-(4,5,6,7-tetrahydropyrazolo[1,5-a]pyridin-3-yl)pyridin-2-yl)-3-hydroxycyclobutanecarboxamide] | 0.28 µM | 0.17 µM | 0.003 µM | 0.22 µM |
| O=C(Nc1cc(-c2cnn3c2CCCC3)c(Cl)cn1)[C@@H]1CCCNC1 [Example 5, (R)—N-(5-chloro-4-(4,5,6,7-tetrahydropyrazolo[1,5-a]pyridin-3-yl)pyridin-2-yl)piperidine-3-carboxamide] | 0.16 µM | 0.27 µM | < 0.004 µM | 0.26 µM |
| O=C(Nc1cc(-c2cnn3c2CCCC3)ccn1)[C@H]1C[C@@H](O)C1 [Example 6, cis-3-hydroxy-N-(4-(4,5,6,7-tetrahydropyrazolo[1,5-a]pyridin-3-yl)pyridin-2-yl)cyclobutanecarboxamide] | 0.63 µM | 0.75 µM | 0.008 µM | 0.46 µM |
| CC(=O)N[C@@H]1CCC[C@H](C(=O)Nc2cc(-c3cnc4n3CCCC4)c(Cl)cn2)C1 [Example 7, (1S,3R)-3-acetamido-N-(5-chloro-4-(5,6,7,8-tetrahydroimidazo[1,2-a]pyridin-3-yl)pyridin-2-yl)cyclohexanecarboxamide] | 1.18 µM | 0.69 µM | 0.008 µM | 1.45 µM |
| CC(=O)N[C@@H]1CCC[C@H](C(=O)Nc2cc(-c3cnc4n3CCC4)c(Cl)cn2)C1 [Example 12, (1S,3R)-3-acetamido-N-(5-chloro-4-(6,7-dihydro-5H-pyrrolo[1,2-a]imidazol-3-yl)pyridin-2-yl)cyclohexanecarboxamide] | 0.701 µM | 0.35 µM | 0.005 µM | 0.83 µM |
| CC(=O)N[C@@H]1CCC[C@H](C(=O)Nc2cc(-c3cnn4c3CC(C)(C)C4)ccn2)C1 [Example 16, (1S,3R)-3-acetamido-N-(4-(5,5-dimethyl-5,6-dihydro-4H-pyrrolo[1,2-b]pyrazol-3-yl)pyridin-2-yl)cyclohexanecarboxamide] | 0.1 µM | 0.028 µM | < 0.003 µM | 0.15 µM |
| CC1(C)Cc2c(-c3ccnc(NC(=O)[C@H]4CCC[C@@H](NC(=O)C5(O)CC5)C4)c3)cnn2C1 [Example 17, (1S,3R)—N-(4-(5,5-dimethyl-5,6-dihydro-4H-pyrrolo[1,2-b]pyrazol-3-yl)pyridin-2-yl)-3-(1-hydroxycyclopropanecarboxamido)cyclohexanecarboxamide] | 0.14 µM | 0.036 µM | 0.004 µM | 0.207 µM |
| CC1(C)Cc2c(-c3ccnc(NC(=O)[C@H]4CCC[C@@H](NC(=O)C5COC5)C4)c3)cnn2C1 [Example 18, N-((1R,3S)-3-((4-(5,5-dimethyl-5,6-dihydro-4H-pyrrolo[1,2-b]pyrazol-3-yl)pyridin-2-yl)carbamoyl)cyclohexyl)oxetane-3-carboxamide] | 0.071 µM | 0.014 µM | < 0.003 µM | 0.122 µM |
| CC1(C)Cc2c(-c3cc(NC(=O)[C@H]4CCC[C@@H](NC(=O)C5COC5)C4)ncc3Cl)cnn2C1 [Example 19, N-((1R,3S)-3-((5-chloro-4-(5,5-dimethyl-5,6-dihydro-4H-pyrrolo[1,2-b]pyrazol-3-yl)pyridin-2-yl)carbamoyl)cyclohexyl)oxetane-3-carboxamide] | 0.011 µM | < 0.003 µM | < 0.003 µM | 0.013 µM |
